Like-named read-outs stand apart in the source and are kept apart here.
How the values were obtained:
[1] = Phase I metabolic stability in rat liver microsomes (with NADPH); format: in vitro ADME; conditions: pH 7.4, presence of NADPH, mean ± SD, n = 3
Description: (§1) We evaluated the Phase I metabolic stability of compounds 2−7 and 14−19 using rat and human liver microsomes, as previously described.[45]
(§2) Phase I metabolic stability assays were conducted using rat and human liver microsomes as previously described[45],[70] with minor modifications. In brief, the reactions were carried out with 100 mM potassium phosphate buffer, pH 7.4, in the presence of NADPH regenerating system (1.3 mM NADPH, 3.3 mM glucose 6-phosphate, 3.3 mM MgCl2, 0.4 U/mL glucose-6-phosphate dehydrogenase, 50 μM sodium citrate). Negative controls without cofactors were assessed to determine the non-CYP-mediated metabolism. Compound disappearance was monitored over time using a liquid chromatography and tandem mass spectrometry (LC/MS) method. All reactions were performed in triplicate.
(§3) Chromatographic analysis was performed on a Dionex ultra high-performance LC system coupled with Q Exactive Focus orbitrap mass spectrometer (Thermo Fisher Scientific Inc., Waltham MA). Separation was achieved using Agilent Eclipse Plus column (100 × 2.1 mm^2 i.d.; maintained at 35 °C) packed with a 1.8 μm C18 stationary phase. […] The total run time for each analyte was 6.5 min. Pumps were operated at a flow rate of 0.3 mL/min. The mass spectrometer controlled by Xcalibur software 4.0.27.13 (Thermo Scientific) was operated with a HESI ion source in positive ionization mode. Compounds were identified in the full-scan mode (from m/z 50 to 750) by comparing t = 0 samples with t = 30 min and t = 60 min samples.

[2] = molecular target: T1, human D4R (Homo sapiens, UniProt P21917); design: host or cells: CHO-K1; method as in PMID 30883109; conditions: previously reported, cited from earlier work; for D4R Emax (%): agonist mode; for D4R Ant. (%): antagonist mode
T1 sequence (P21917 1-419): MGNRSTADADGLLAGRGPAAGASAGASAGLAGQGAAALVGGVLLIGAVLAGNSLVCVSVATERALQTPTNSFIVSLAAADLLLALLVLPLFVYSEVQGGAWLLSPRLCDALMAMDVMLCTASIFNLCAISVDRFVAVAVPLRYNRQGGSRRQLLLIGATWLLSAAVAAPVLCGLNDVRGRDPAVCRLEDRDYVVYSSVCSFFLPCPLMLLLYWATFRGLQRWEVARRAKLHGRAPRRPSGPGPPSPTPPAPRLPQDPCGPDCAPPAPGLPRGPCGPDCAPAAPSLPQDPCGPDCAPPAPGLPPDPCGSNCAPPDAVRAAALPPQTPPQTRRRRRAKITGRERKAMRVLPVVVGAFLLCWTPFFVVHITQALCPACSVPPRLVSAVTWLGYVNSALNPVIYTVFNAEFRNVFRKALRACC

[3] = molecular target: T2, human D3R (Homo sapiens, UniProt P35462); design: expressed in transfected cells; host or cells: HEK293; method as in PMID 30883109; conditions: HEK293 membranes, hD3R; previously reported; read-out: Ki (nM) ± SEM [3H]N-methlyspiperone D3R; cited from earlier work
[4] = molecular target: T2, human D3R; design: host or cells: CHO-K1; method as in PMID 30883109; conditions: previously reported, cited from earlier work; for D3R Emax (%): agonist mode
[5] = molecular target: T1, human D4R; conditions: for D4R Ant. (%): antagonist mode, 10 μM forskolin and 10 nM dopamine, normalized to spiperone; for Emax: read-out: D4R Emax (%)
[6] = Phase I metabolic stability in human liver microsomes (with NADPH); format: in vitro ADME; conditions: pH 7.4, presence of NADPH, mean ± SD, n = 3
Description: as §1, §2, §3

[7] = Non-Phase I metabolic stability in human liver microsomes (absence of NADPH); format: in vitro ADME
Description: We also evaluated the non-Phase I metabolic stability of compounds 2−7 and 14−19 using rat and human liver microsomes. […] This may represent metabolism by hydrolases that can specifically attack the amide. Evidence in support of this hypothesis is shown by the remarkable stability of all triazole analogs (14−19) in the absence of NADPH in Figure 5B,D.
as §2
Chromatographic analysis was performed on a Dionex ultra high-performance LC system coupled with Q Exactive Focus orbitrap mass spectrometer (Thermo Fisher Scientific Inc., Waltham MA). Separation was achieved using Agilent Eclipse Plus column (100 × 2.1 mm^2 i.d.; maintained at 35 °C) packed with a 1.8 μm C18 stationary phase. […] The total run time for each analyte was 6.5 min. […]

[8] = molecular target: human D2R long isoform (Homo sapiens, UniProt P14416); design: host or cells: CHO-K1; method as in PMID 30883109; conditions: antagonist mode; previously reported; cited from earlier work
[9] = Aqueous solubility (remark); format: physicochemical; conditions: remark in text
[10] = molecular target: T1, human D4R; assay: [3H]N-methylspiperone radioligand competition binding, hD4R membranes
[11] = molecular target: human D2LR (Homo sapiens, UniProt P14416); assay: biochemical
[12] = molecular target: T1, human D4R; assay: DiscoverX PathHunter β-arrestin recruitment assay, D4R
[13] = Pharmacokinetics study in rats (plasma and brain); format: in vivo, Sprague−Dawley rats; conditions: rat, 5 mg/kg IP
Description: Given their adequate in vitro stability profiles, we next evaluated the in vivo pharmacokinetic profiles of 14, 15, 17, and 18 in rats. Sprague−Dawley rats were dosed with 5 mg/kg (14, 15, 17) or 10 mg/kg (18), i.p., and plasma and brain levels of each drug were measured 0−6 h postdose.
All animal experiments were performed following the protocols evaluated and approved by the Animal Care and Use Committee at Johns Hopkins University (Ethics Approval Number: RA24M403). Pharmacokinetic studies in Sprague−Dawley (SD) rats were conducted according to protocols approved. SD rats obtained from Harlan were maintained on a 12 h light−dark cycle with ad libitum access to food and water. Test compound was administered via i.p. injection at a dose of 10 mg/kg (100% saline vehicle, 10 mL/kg volume). The rats were sacrificed at specified time points (0.25, 0.5 h, 1, 2, 4, and 6 h) post drug administration. For the collection of plasma and brain tissue, animals were euthanized with CO2, and blood samples were collected in heparinized microtubes by cardiac puncture. Brains were dissected and immediately flash-frozen (−80 °C). Blood samples were spun at 2000g for 15 min, and plasma was removed and stored at −80 °C until analysis (as described below).
Quantitation of triazole analogs 14, 15, 17, and 18 was performed using liquid chromatography with tandem mass spectrometry (LC/MS-MS) methods. Briefly, calibration standards were prepared using respective tissue (naïve plasma and brain) with additions of the test compounds. For quantifying the test compounds in the pharmacokinetic samples, plasma samples (20 μL) were processed using a single liquid extraction method by addition of 100 μL of acetonitrile containing internal standard (losartan: 0.5 μM), followed by vortex-mixing for 30 s and then centrifugation at 10,000g for 10 min at 4 °C. Brain tissues were diluted 1:5 w/v with acetonitrile containing losartan (0.5 μm) and homogenized, followed by vortex-mixing and centrifugation at 10,000g for 10 min at 4 °C. A 50 μL aliquot of the supernatant was diluted with 50 μL of water and transferred to 250 μL polypropylene autosampler vials sealed with Teflon caps. Two μL of the sample was injected into the LC/MS/MS system for analysis. Chromatographic analysis was performed using an Accela ultra high-performance system consisting of an analytical pump and an autosampler coupled with a TSQ Vantage mass spectrometer. […] The mobile phase consisted of 0.1% formic acid in acetonitrile and 0.1% formic acid in water with gradient elution, starting with 10% organic phase (from 0 to 1 min) linearly increasing to 95% (from 1 to 2 min), and re-equilibrating to 10% by 3 min. The total run time for each analyte was 3.5 min. Pumps were operated at a flow rate of 0.4 mL/min. […] Plasma concentrations (nmol/mL) as well as brain tissue concentrations (nmol/g) were determined and plots of mean plasma concentration versus time were constructed. Noncompartmental analysis modules in Phoenix WinNonlin version 7.0 (Certara USA, Inc., Princeton, NJ) were used to quantify exposures (AUC0−t) and half-life (t1/2).

[14] = molecular target: T3, D1 (Homo sapiens, UniProt P21728); assay: PDSP primary screen and secondary assay, D1; format: binding; conditions: 10 µM compound
T3 construct: Psychoactive Drug Screening Program (PDSP)
From the text: (§4) Receptor Primary Secondary Primary Secondary Primary Secondary Primary Secondary screen assay screen assay screen assay screen assay […]
(§5) inhibition in primary assessment.

[15] = molecular target: T2, human D3R; assay: biochemical
[16] = molecular target: T4, D5 (Homo sapiens, UniProt P21918); assay: PDSP primary screen, D5; format: binding; conditions: 10 µM compound
T4 construct: Psychoactive Drug Screening Program (PDSP)
From the text: as §4, §5

T2 sequence (P35462 whole entry): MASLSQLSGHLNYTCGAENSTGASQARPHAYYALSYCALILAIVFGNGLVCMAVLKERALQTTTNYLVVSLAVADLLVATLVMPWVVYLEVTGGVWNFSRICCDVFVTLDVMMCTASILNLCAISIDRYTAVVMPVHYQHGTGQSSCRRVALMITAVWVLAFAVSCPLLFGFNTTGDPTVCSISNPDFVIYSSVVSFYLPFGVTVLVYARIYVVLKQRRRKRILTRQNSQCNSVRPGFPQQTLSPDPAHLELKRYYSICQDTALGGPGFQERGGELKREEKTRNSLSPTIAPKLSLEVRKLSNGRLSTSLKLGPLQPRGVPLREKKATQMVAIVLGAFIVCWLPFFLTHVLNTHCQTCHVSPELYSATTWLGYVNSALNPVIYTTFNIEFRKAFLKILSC
Sequence of human D2R long isoform (P14416 whole entry, canonical isoform): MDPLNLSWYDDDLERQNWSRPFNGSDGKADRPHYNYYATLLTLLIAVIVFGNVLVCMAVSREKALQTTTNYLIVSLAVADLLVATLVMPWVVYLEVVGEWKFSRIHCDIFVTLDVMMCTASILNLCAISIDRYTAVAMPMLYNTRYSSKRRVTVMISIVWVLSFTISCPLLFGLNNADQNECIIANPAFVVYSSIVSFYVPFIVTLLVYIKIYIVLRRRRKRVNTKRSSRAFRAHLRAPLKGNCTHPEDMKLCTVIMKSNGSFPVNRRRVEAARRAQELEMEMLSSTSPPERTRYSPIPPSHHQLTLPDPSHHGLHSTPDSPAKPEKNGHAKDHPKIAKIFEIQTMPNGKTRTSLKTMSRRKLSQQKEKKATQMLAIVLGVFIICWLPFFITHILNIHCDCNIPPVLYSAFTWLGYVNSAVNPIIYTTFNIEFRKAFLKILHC
T4 sequence (P21918 whole entry): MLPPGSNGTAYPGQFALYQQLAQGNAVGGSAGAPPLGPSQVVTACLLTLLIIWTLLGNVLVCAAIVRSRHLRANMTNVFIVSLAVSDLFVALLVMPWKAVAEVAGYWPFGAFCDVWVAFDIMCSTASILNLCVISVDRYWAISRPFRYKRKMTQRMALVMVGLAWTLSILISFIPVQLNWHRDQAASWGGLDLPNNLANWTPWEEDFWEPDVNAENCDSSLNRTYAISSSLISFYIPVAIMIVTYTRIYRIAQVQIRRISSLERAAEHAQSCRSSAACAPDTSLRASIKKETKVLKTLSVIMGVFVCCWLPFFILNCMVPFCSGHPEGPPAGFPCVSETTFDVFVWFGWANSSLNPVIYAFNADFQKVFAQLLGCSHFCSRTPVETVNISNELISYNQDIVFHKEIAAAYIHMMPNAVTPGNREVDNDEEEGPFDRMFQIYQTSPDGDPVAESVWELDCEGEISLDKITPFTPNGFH
Sequence of human D2LR (P14416 whole entry): as the sequence (P14416 whole entry, canonical isoform) above
T3 sequence (P21728 whole entry): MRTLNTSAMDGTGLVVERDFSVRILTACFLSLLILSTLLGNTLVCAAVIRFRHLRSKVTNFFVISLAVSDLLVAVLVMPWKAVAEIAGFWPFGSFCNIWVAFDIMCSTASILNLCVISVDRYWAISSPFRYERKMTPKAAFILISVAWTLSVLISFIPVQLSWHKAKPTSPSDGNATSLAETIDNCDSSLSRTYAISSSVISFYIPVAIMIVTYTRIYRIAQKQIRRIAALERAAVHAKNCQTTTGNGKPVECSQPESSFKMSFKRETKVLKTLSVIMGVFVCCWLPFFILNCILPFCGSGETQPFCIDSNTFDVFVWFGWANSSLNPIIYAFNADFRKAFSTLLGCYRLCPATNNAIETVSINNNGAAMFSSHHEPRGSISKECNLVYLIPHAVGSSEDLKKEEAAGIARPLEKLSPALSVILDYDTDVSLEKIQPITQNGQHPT

| SMILES | half-life [1] [min] | D4R Emax (%) [2] [%] | D4R Ant. (%) [2] [%] | Ki [3] [nM] | D3R Emax (%) [4] [%] | IC50 ([4]; antagonist mode) [nM] | EC50 [5] [nM] | D4R Ant. (%) ([5]; cAMP) | Emax [5] [%] | half-life [6] [min] | non-Phase I metabolic stability [7] | IC50 [5] [nM] | D2R Ant (%) [8] [%] | further results |
| --- | --- | --- | --- | --- | --- | --- | --- | --- | --- | --- | --- | --- | --- | --- |
| Cc1cccc(NC(=O)CN2CCN(c3ccccn3)CC2)c1 [Compound 2] | 9.92 ± 0.18 | 30.7 ± 6.4 | 78.9 ± 3.1 | > 10000 | 49.4 ± 2.0 | > 100000 | 2.92 ± 0.15 | 16 ± 1 | 65 ± 3 | 67 ± 2.41 | – | – | – | – |
| CCc1cccc(NC(=O)CN2CCN(c3ccccn3)CC2)c1 [Compound 3] | 20.8 ± 1.99 | 26.2 ± 5.1 | 59.7 ± 4.6 | – | 44.7 ± 5.9 | – | 5.38 ± 1.08 | 30 ± 1 | 59 ± 4 | 249 ± 66.5 | nonexistent | 267 ± 115 | – | D3R Ant. (%) ([4]; antagonist mode): 100 ± 0% |
| Cc1cccc(NC(=O)CN2CCN(c3ncccn3)CC2)c1 [Compound 4] | 26.83 ± 0.21 | 24.7 ± 5 | 80.6 ± 3.0 | > 10000 | 58.4 ± 6.6 | > 100000 | 7.93 ± 2.12 | 29 ± 5 | 60 ± 4 | 39.8 ± 2.16 | – | – | – | – |
| Cc1cccc(NC(=O)CN2CCN(c3cccc4ccccc34)CC2)c1 [Compound 6] | 10.5 ± 0.03 | 16.4 ± 3.9 | 96.7 ± 2.7 | – | – | – | – | 91 ± 7 | – | 16.6 ± 0.17 | relatively little non-Phase I metabolism | > 50000 | 100 ± 0 | aqueous solubility [9]: poor aqueous solubility; D4R average activity at the highest tested dose ([5]; cAMP, agonist mode, at 33 μM (Emax ND)): ND (16% at 33 μM) |
| Cc1cccc(NC(=O)CN2CCN(c3ccc(Cl)cn3)CC2)c1 [Compound 7] | 9.51 ± 0.12 | – | – | > 50000 | – | – | – | 110 ± 7 | – | 74.2 ± 4.56 | – | 2870 ± 817 | 100 ± 0 | – |
| Cc1cccc(-n2cc(CN3CCN(c4ccc(Cl)cn4)CC3)nn2)c1 [Compound 17, 1-(5-Chloropyridin-2-yl)-4-((1-(m-tolyl)-1H-1,2,3-triazol-4-yl)methyl)piperazine] | 64.8 ± 2.12 | – | – | – | – | – | – | 85 ± 1 | – | 46.8 ± 6.69 | – | 134 ± 36.4 | – | Ki [10]: 77.7 ± 19.9 nM; Selectivity D2R/D4R ([10]; ratio of Ki values): >1287; Selectivity D3R/D4R ([10]; ratio of Ki values): >1287; Ki [11]: > 100000 nM; IC50 [12]: 3800 ± 720 nM; D4R Ant. (%) ([12]; antagonist mode, EC80 dopamine (1 μM), normalized to spiperone): 91.6 ± 4.7%; Kp ([13]; Sprague-Dawley, brain and plasma, ip, 5 mg/kg, AUC brain/plasma, read-out: brain: Plasma ratio): 0.3; half-life ([13]; Sprague-Dawley, brain, ip, 5 mg/kg, brain, read-out: half-life (h) brain (converted)): 2.36 h; half-life ([13]; Sprague-Dawley, plasma and brain, ip, 5 mg/kg, tissue not specified, read-out: half-life (converted)): ≥ 2.1 h; half-life ([13]; Sprague-Dawley, plasma, ip, 5 mg/kg, plasma, read-out: half-life (h) plasma (converted)): 2.1 h; Tmax ([13]; Sprague-Dawley, brain, read-out: Tmax (h) brain): 0.25 h; AUC ([13]; Sprague-Dawley, plasma): 15.1 ± 1.83 µM·h; Cmax ([13]; Sprague-Dawley, plasma): 10 ± 1.27 µM; Tmax ([13]; Sprague-Dawley, plasma, read-out: Tmax (h) plasma): 0.25 h; AUC brain ([13]; brain): 4.57 ± 0.50 nmol·h/g; Cmax brain ([13]; brain): 3.04 ± 0.45 nmol/g; peak in vivo brain concentrations expected ([13]; from brain Cmax): greater than 3.0 μM; inhibition at 10 µM [14]: 16.7%; Ki [15]: > 100000 nM; inhibition at 10 µM [16]: 6.22% |

Source: article PMC12910498 (ACS pharmacology & translational science, 2026)
